Experimental data published in patent publication US6737383B1, “Herbicidal oxadiazolidines” (priority 1999, dated 2004).

Legend:
sugar beet = assay: Test B pre/postemergence sugar beet; type: in vivo, Beta vulgaris
Procedure, shortened: (§1)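 Response is a visual 0-to-10 score relative to untreated plants, where 0 means no effect and 10 means complete control, taken twelve to sixteen days after application. Treatments went onto soil at planting and onto foliage of 1- to 4-leaf plants, using a surfactant-containing non-phytotoxic solvent.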

soybean = assay: Test B pre/postemergence soybean; type: in vivo, Glycine max
Procedure, shortened: as §1

wheat = assay: Test B pre/postemergence wheat; type: in vivo, Triticum aestivum
Procedure, shortened: as §1

corn = assay: Test B pre/postemergence corn; type: in vivo, Zea mays
Procedure, shortened: as §1

cocklebur = assay: Test B pre/postemergence cocklebur; type: in vivo, Xanthium strumarium
Procedure, shortened: as §1

pigweed = assay: Test B pre/postemergence pigweed; type: in vivo, Amaranthus retroflexus
Procedure, shortened: as §1

velvetleaf = assay: Test B pre/postemergence velvetleaf; type: in vivo, Abutilon theophrasti
Procedure, shortened: as §1

purple nutsedge = assay: Test B pre/postemergence purple nutsedge; type: in vivo, Cyperus rotundus
Procedure, shortened: as §1

morningglory = assay: Test B pre/postemergence morningglory; type: in vivo, Ipomoea hederacea
Procedure, shortened: as §1

bedstraw = assay: Test B pre/postemergence bedstraw; type: in vivo, Galium aparine
Procedure, shortened: as §1

rape = assay: Test B pre/postemergence rape; type: in vivo, Brassica napus
Procedure, shortened: as §1

crabgrass = assay: Test B pre/postemergence crabgrass; type: in vivo, Digitaria sanguinalis
Procedure, shortened: as §1

wild oat = assay: Test B pre/postemergence wild oat; type: in vivo, Avena fatua
Procedure, shortened: as §1

surinam grass = assay: Test B pre/postemergence surinam grass; type: in vivo, Brachiaria decumbens
Procedure, shortened: as §1

blackgrass = assay: Test B pre/postemergence blackgrass; type: in vivo, Alopecurus myosuroides
Procedure, shortened: as §1

giant foxtail = assay: Test B pre/postemergence giant foxtail; type: in vivo, Setaria faberii
Procedure, shortened: as §1

[1] = Postemergence, Rate 62 g/ha, scale 0 to 10, 0 is no effect, 10 is complete control
[2] = Postemergence, Rate 500 g/ha, scale 0 (no effect) to 10 (complete control)
[3] = Preemergence, Rate 250 g/ha, scale 0 (no effect) to 10 (complete control)
[4] = Rate 62 g/ha, Preemergence, scale 0 to 10
[5] = Rate 125 g/ha, Preemergence, scale 0 to 10 (0 no effect, 10 complete control)
[6] = Rate 250 g/ha, Postemergence, scale 0 to 10, 0 is no effect, 10 is complete control
[7] = Rate 500 g/ha, Preemergence, scale 0 to 10 (0 no effect, 10 complete control)
[8] = Postemergence, Rate 125 g/ha, scale of 0 to 10 where 0 is no effect and 10 is complete control

## C#CC(C)n1c(=O)on(C(=O)N(c2ccc(F)cc2)C(C)C)c1=O (stereo not shown) [Compound 763]
Sugar beet; [1]
  Plant response rating, Sugarbeets: 0
Sugar beet; [2]
  Sugarbeets plant response rating: 4
Sugar beet; [3]
  Sugarbeets plant response rating: 3
Sugar beet; [4]
  Sugarbeets plant response rating: 0
Sugar beet; [5]
  Sugarbeets plant response rating: 0
Sugar beet; [6]
  Sugarbeets plant response rating: 2
Sugar beet; [7]
  Sugarbeets plant response rating: 6
soybean; [1]
  Plant response rating, Soybean: 2
soybean; [2]
  Soybean plant response rating: 5
soybean; [3]
  Soybean plant response rating: 0
soybean; [4]
  Soybean plant response rating: 0
soybean; [5]
  Soybean plant response rating: 0
soybean; [6]
  Soybean plant response rating: 3
soybean; [7]
  Soybean plant response rating: 0
wheat; [1]
  Plant response rating, Wheat: 0
wheat; [2]
  Wheat plant response rating: 3
wheat; [3]
  Wheat plant response rating: 5
wheat; [4]
  Wheat plant response rating: 0
wheat; [5]
  Wheat plant response rating: 0
wheat; [6]
  Wheat plant response rating: 4
wheat; [7]
  Wheat plant response rating: 7
corn; [1]
  Plant response rating, Corn: 0
corn; [8]
  Corn plant response rating: 0
corn; [2]
  Corn plant response rating: 2
corn; [3]
  Corn plant response rating: 0
corn; [4]
  Corn plant response rating: 0
corn; [5]
  Corn plant response rating: 0
corn; [6]
  Corn plant response rating: 0
corn; [7]
  Corn plant response rating: 0
cocklebur; [1]
  Plant response rating, Cocklebur: 0
cocklebur; [8]
  Cocklebur plant response rating: 0
cocklebur; [2]
  Cocklebur plant response rating: 3
cocklebur; [3]
  Cocklebur plant response rating: 0
cocklebur; [4]
  Cocklebur plant response rating: 0
cocklebur; [5]
  Cocklebur plant response rating: 0
cocklebur; [6]
  Cocklebur plant response rating: 1
cocklebur; [7]
  Cocklebur plant response rating: 0
pigweed; [1]
  Plant response rating, Redroot pigweed: 0
pigweed; [8]
  Redroot pigweed plant response rating: 0
pigweed; [2]
  Redroot pigweed plant response rating: 8
pigweed; [3]
  Redroot pigweed plant response rating: 10
pigweed; [4]
  Redroot pigweed plant response rating: 8
pigweed; [5]
  Redroot pigweed plant response rating: 9
pigweed; [6]
  Redroot pigweed plant response rating: 3
pigweed; [7]
  Redroot pigweed plant response rating: 10
velvetleaf; [1]
  Plant response rating, Velvetleaf: 0
velvetleaf; [2]
  Velvetleaf plant response rating: 2
velvetleaf; [3]
  Velvetleaf plant response rating: 1
velvetleaf; [4]
  Velvetleaf plant response rating: 0
velvetleaf; [5]
  Velvetleaf plant response rating: 1
velvetleaf; [6]
  Velvetleaf plant response rating: 0
velvetleaf; [7]
  Velvetleaf plant response rating: 3
Purple nutsedge; [1]
  Plant response rating, Nutsedge: 0
Purple nutsedge; [8]
  Nutsedge plant response rating: 0
Purple nutsedge; [2]
  Nutsedge plant response rating: 6
Purple nutsedge; [4]
  Nutsedge plant response rating: 0
Purple nutsedge; [6]
  Nutsedge plant response rating: 3
Purple nutsedge; [7]
  Nutsedge plant response rating: 5
morningglory; [1]
  Plant response rating, Morningglory: 2
morningglory; [8]
  Morningglory plant response rating: 7
morningglory; [2]
  Morningglory plant response rating: 7
morningglory; [3]
  Morningglory plant response rating: 0
morningglory; [4]
  Morningglory plant response rating: 0
morningglory; [5]
  Morningglory plant response rating: 0
morningglory; [6]
  Morningglory plant response rating: 7
morningglory; [7]
  Morningglory plant response rating: 5
bedstraw; [8]
  Bedstraw plant response rating: 0
bedstraw; [2]
  Bedstraw plant response rating: 4
bedstraw; [3]
  Bedstraw plant response rating: 7
bedstraw; [4]
  Bedstraw plant response rating: 0
bedstraw; [5]
  Bedstraw plant response rating: 6
bedstraw; [7]
  Bedstraw plant response rating: 8
rape; [1]
  Plant response rating, Rape: 0
rape; [8]
  Rape plant response rating: 0
rape; [2]
  Rape plant response rating: 3
rape; [3]
  Rape plant response rating: 6
rape; [4]
  Rape plant response rating: 0
rape; [5]
  Rape plant response rating: 5
rape; [6]
  Rape plant response rating: 0
rape; [7]
  Rape plant response rating: 9
crabgrass; [1]
  Plant response rating, Crabgrass: 2
crabgrass; [8]
  Crabgrass plant response rating: 5
crabgrass; [2]
  Crabgrass plant response rating: 9
crabgrass; [3]
  Crabgrass plant response rating: 10
crabgrass; [4]
  Crabgrass plant response rating: 9
crabgrass; [5]
  Crabgrass plant response rating: 9
crabgrass; [6]
  Crabgrass plant response rating: 8
crabgrass; [7]
  Crabgrass plant response rating: 9
Wild oat; [1]
  Plant response rating, Wild oats: 0
Wild oat; [2]
  Wild oats plant response rating: 1
Wild oat; [3]
  Wild oats plant response rating: 9
Wild oat; [4]
  Wild oats plant response rating: 2
Wild oat; [5]
  Wild oats plant response rating: 8
Wild oat; [7]
  Wild oats plant response rating: 9
Surinam grass; [1]
  Plant response rating, B. signalgrass: 0
Surinam grass; [8]
  B. signalgrass plant response rating: 3
Surinam grass; Preemergence, Rate 62 g/ha, scale of 0 to 10 where 0 is no effect and 10 is complete control
  B. signalgrass plant response rating: 0
Surinam grass; [3]
  B. signalgrass plant response rating: 9
Surinam grass; [5]
  B. signalgrass plant response rating: 9
Surinam grass; [6]
  B. signalgrass plant response rating: 5
Surinam grass; Rate 500 g/ha, Postemergence, scale 0 to 10, 0 is no effect, 10 is complete control
  B. signalgrass plant response rating: 5
Surinam grass; [7]
  B. signalgrass plant response rating: 8
blackgrass; [1]
  Plant response rating, Blackgrass: 5
blackgrass; [8]
  Blackgrass plant response rating: 5
blackgrass; [2]
  Blackgrass plant response rating: 5
blackgrass; [3]
  Blackgrass plant response rating: 9
blackgrass; [4]
  Blackgrass plant response rating: 8
blackgrass; [5]
  Blackgrass plant response rating: 9
blackgrass; [6]
  Blackgrass plant response rating: 5
blackgrass; [7]
  Blackgrass plant response rating: 10
Giant foxtail; [1]
  Plant response rating, Giant foxtail: 6
Giant foxtail; [8]
  Giant foxtail plant response rating: 8
Giant foxtail; [2]
  Giant foxtail plant response rating: 9
Giant foxtail; [3]
  Giant foxtail plant response rating: 9
Giant foxtail; [4]
  Giant foxtail plant response rating: 9
Giant foxtail; [5]
  Giant foxtail plant response rating: 9
Giant foxtail; [6]
  Giant foxtail plant response rating: 9
Giant foxtail; [7]
  Giant foxtail plant response rating: 9
